Test results as given in patent publication US20090305259A1, “Early Diagnosis of Congenital Abnormalities in the Offspring of Diabetic Mothers” (YALE UNIVERSITY, priority 2006, published 2009).
Entries after “also recorded” stand apart in the source; their conditions may differ.

Tests used:
Wnt16 = test: Western blot of Wnt16 in yolk sacs across treatment groups; type: cell-based, mouse; conditions: yolk sac / whole conceptus culture, 20 mM D-glucose plus agent
Method: (§1) Conceptuses are cultured for 48 hrs in the presence of rat serum or rat serum+20 mM D-Glucose, or rat serum+20 mM D-Glucose+rVEGF or NO donor or 20 mM mannitol for 48 hrs. At 8.5 dpc the yolk sacs are harvested and analyzed using LC-MS and LC-MS-MS methods as well as by traditional cell and molecular biological methods. At 9.5 dpc atrioventricular (AV) canals are harvested from the conceptuses and cultured for 48 to 72 hrs on collagen gels to allow epithelial-mesenchymal transformation (EMT). The AV canal cultures are analyzed by double or triple label standard and confocal immunofluorescence microscopy, laser dissection capture microscopy followed by Western blotting for protein determination, characterization and localization. The effects of exogenous VEGF-A (1, 10 & 20 ng/ml), Pro- and mature BDNF (1, 25 & 50 ng/ml), NO donor (Noc-18) TIMP-1 and TIMP-2 (1, 25 & 50 ng/ml) on EMT and protein expression, post-translational modification and degradation are assessed.
(§2) Further, several of these proteins were validated in conceptus culture assays prior to and following VEGF and NO donor rescues using Western blotting, histological and immunolocalization analyses. […] Further, sequestration of Wnt16 (FIG. 11), ADAM 15 (FIG. 12), and NOGO A (FIG. 13) by antibodies directed against them abrogated EMT in cardiac AVC cushion explant cultures. […]

yolk sac vasculogenesis = test: Whole conceptus culture: yolk sac vasculogenesis under hyperglycemia; type: cell-based, mouse; conditions: for rescue of hyperglycemia-arrested yolk sac vascular development (arborization): conceptus culture with 20 mM D-glucose plus agent, PECAM-1 staining
Method: Timed pregnant mice are used to harvest 7.5 and 9.5 days post conception (dpc) conceptuses from which yolk sac and hearts are dissected. The atrioventricular canals are isolated for subsequent culture and analysis of the epithelial to mesenchymal transformation that occurs in the formation of the endocardial cushion.
as §1
Using this embryo culture system, groups of ten 7.5 dpc conceptuses were cultured in normoglycemic conditions (5.0 mM D-glucose [control]), hyperglycemic conditions (20 mM D-glucose [HG]), HG+10 pg/ml VEGF A165 (HG+rVEGF) and HG+a slow release NO donor (HG+Noc-18) for 24 hrs. The conceptuses were harvested at 8.5 dpc when their yolk sacs were at the primary capillary plexus stage and beginning to undergo vascular remodeling. Lysates were then prepared for SDS-PAGE, Silver Staining and MS analysis. FIG. 4A depicts PECAM-1 staining of the capillary plexas at 8.5 dpc and illustrates the non-descript vascular plexus observable at this stage of development. […] This is in contrast to LC-MS and LC-MS-MS analyses of these samples (see below).

ADAM 15 = test: Western blot of ADAM 15 in yolk sacs across treatment groups; type: cell-based, mouse; conditions: yolk sac / whole conceptus culture, 20 mM D-glucose plus agent
Method: as §1, §2

NOGO A = test: Western blot of NOGO A in yolk sacs across treatment groups; type: cell-based, mouse; conditions: yolk sac culture, hyperglycemia plus agent, listed as NO donor
Method: as §1, §2

cardiac EMT = conditions: cardiac A-V canal and outflow tract cultures, 20 mM D-glucose; cited from earlier work
developing conceptuses = conditions: 250 mg/kg prior to mating; fast elimination; cited from earlier work

With `NCCN(CCN)/[N+]([O-])=N/O` [NOC-18] the “Wnt16 expression level (upregulated by hyperglycemia) after treatment” value (Wnt16) was “down-regulated to near normoglycemic levels”, the “Wnt16 expression level (upregulated by hyperglycemia) after treatment” value (Wnt16; listed as NO donor) was “rescued; also recorded: returned to normal levels” and the “rescue of hyperglycemia-arrested yolk sac vascular development (arborization)” value (“rescue” below) (yolk sac vasculogenesis) was “rescue of the hyperglycemic arrest of vascular development; also recorded: restore normal vascular morphology; also recorded: rescue of yolk Sac vascular development”. For the same molecule, the “rescue” value (yolk sac vasculogenesis; listed as NO donor) was “reversed”, the “rescue” value (yolk sac vasculogenesis; listed as NOD) was “restores vascular arborization” and the “ADAM 15 expression level (downregulated by hyperglycemia) after treatment” value (ADAM 15) was “up-regulated to near normoglycemic levels”. The “ADAM 15 expression level (downregulated by hyperglycemia) after treatment” value (ADAM 15; listed as NO donor) was “rescued; also recorded: returned to normal levels” and the “NOGO A expression level (downregulated by hyperglycemia) after treatment” value (NOGO A) was “rescued; also recorded: returned to normal levels”.
In the case of `OC[C@H]1O[C@H](O)[C@H](O)[C@@H](O)[C@@H]1O` [alpha-D-glucose], the “effect on yolk sac vasculogenesis” value (yolk sac vasculogenesis; transient (as little as 3 hr) exposure, 20 mM alpha-D-glucose) is listed as “arrest yolk sac vasculogenesis at the primary capillary plexus stage” and the “effect on cardiac cushion formation” value (cardiac EMT) is listed as “arrested cushion formation”.
For `CN(N=O)C(=O)N[C@H]1C(O)O[C@H](CO)[C@@H](O)[C@@H]1O` (mixture of isomers) [Streptozotocin], the “toxic effect on the developing conceptuses” value (developing conceptuses) is listed as “no toxic effect”.
